Here are results for one compound from patent publication US8551526B2, “Preparation of drug particles using evaporation precipitation into aqueous solutions” (Board of Regents, The University of Texas System, priority 2000, dated 2013).

Several values for one entry are separate records, joined by “and”; a condition that tells them apart may be missing. Equal values may be shown once.

What all share (assay type): physicochemical
Series [1] in a line: Contact angle of water on compressed dry powder tablet. To be noted: distilled water drop on compressed tablet. As for the experimental part: […] was filled into a 0.7 cm diameter flat faced die and compressed with a Carver Laboratory Press (Model M, Fred S. Carver Inc, WIS, USA) at 1500 kgf into a tablet. A drop of […] distilled water was placed on the surface of the tablet and contact angle was measured from the tangential angle of the water drop with help of a camera (Panasonic WV-1410, Philippines).

The nature of series [2]: X-ray diffraction of danazol dry powders. As for the experimental part:
(§1) Two percent (2%) w/v danazol solution in dichloromethane was sprayed at a flow rate of 1 ml/min into 100 ml aqueous solution containing 1% w/v excipient or a excipient mixture at 1:1 w/w ratio, if two surfactants were used, to stabilize the drug particles. The temperatures of both heating jacket and water bath were 80° C. and the pressure drop was 3500-4000 psi. After 25 minutes spray, a suspension with drug to excipient ratio of 0.5 was recovered and the particle size of the danazol particles was measured with Malvern Mastersizer-S. The suspensions were centrifuged (BECKMAN, Model TJ-6, USA) at 3000 rpm for 30 mins. The supernatants were poured out and the precipitates were placed into a vacuum oven and dried at 40° C., and −30 in Hg for 3-4 hrs. The crystallinity of the dry powders was examined by x-ray diffraction (PW1720, PHILIPS). The surface area of the dry powders was measured with a high-speed surface area BET analyzer (NOVA 2000, Quantachrome Instruments, USA).
X-ray diffraction was used to analyze the crystallinity of the dry powders. […] The a-peak heights of danazol in different excipient systems at 2θ=15° are listed in Table N. The reduction in crystallinity was less than 20% after correction for the presence of 10% w/w excipient. It was assumed that the danazol peak height was linear in concentration for a fixed weight. […]

Series [3] can be described thus: Particle size distribution by static light scattering (Malvern Mastersizer-S) and redispersibility. To be noted: after centrifugation and vacuum drying. The source says: The organic danazol solution was fed by an HPLC pump through a 3 m long 1/16 in. o.d.×0.030 in. i.d. stainless steel coiled tube contained within a 1½″ OD×24″ long plastic water jacket (Alltech). Water was circulated through the jacket with a JULABO MP temperature controller. The organic solution was atomized through an unheated insulated adjustable restrictor (5 mm dia.×136 mm long, ISCO, USA) into hot water. Atomization was achieved by adjusting the nozzle valve manually to maintain a pressure drop to about 3500 psi. The aqueous stabilizing solution was contained in a 250 ml plastic submerged in a temperature-controlled water bath. The nozzle was submerged approximately 10 cm under the surface of the aqueous solution. […] After spraying for a required time to produce the desired drug/excipient ratio, the suspension was recovered and analyzed within 30 mins to determine the particle size by light scattering with a Malvern Mastersizer-S (Malvern Instruments Ltd., U. K.).
Two percent (2%) w/v danazol solution in dichloromethane was sprayed at a flow rate of 1 ml/min into 100 ml aqueous solution containing 1% w/v excipient or a excipient mixture at 1:1 w/w ratio, if two surfactants were used, to stabilize the drug particles. […] The surface area of the dry powders was measured with a high-speed surface area BET analyzer (NOVA 2000, Quantachrome Instruments, USA). […]

A short description of series [4]: BET surface area of danazol dry powders. As for the experimental part:
as §1

Turning to `C#C[C@]1(O)CC[C@H]2[C@@H]3CCC4=Cc5oncc5C[C@]4(C)[C@H]3CC[C@@]21C` [Bulk danazol, danazol], the “Contact angle of dry powder after centrifugation and drying” value in series [1] was 61.5 ° and 61.0 °. The “Peak height of danazol x-ray diffraction at 2θ = 15°” value in series [2] amounted to 3182 counts. The “D (v, 0.5) redispersed dry powders” value in series [3] (cell marked (30s)) is 21.07 (30s) μm. The “D (v, 0.5) redispersed dry powders w/o ultrasonic” value in series [3] (redispersed in distilled water) stood at 29.63 μm. The “Surface Area of the dry powder” value in series [4] is reported as 0.52 m^2/g.
